Source: US12319672B2, “Alpha-D-galactopyranoside derivatives” (Idorsia Pharmaceuticals Ltd, priority 2019, dated 2025)
Each block holds one molecule with its values, some of them ahead of it.

Tests used:
human Gal-3 (hGal-3) = human Gal-3 (hGal-3) (Homo sapiens (Human), UniProt P17931); assay: Competitive binding assay: binding of biotinylated hGal-3 to microplate-adsorbed asialofetuin (ASF); details: Activity on hGal-3; mean values of several measurements
In short: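 Biotinylated hGal-3 (300-1000 ng/mL) bound to ASF-coated wells with serially diluted compound, 3 h at 4° C. After washing, bound protein was detected with streptavidin-peroxidase (80 ng/mL, 1 h, 4° C) and ABTS substrate; IC50 values are means of several measurements.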

human Gal-1 (hGal-1) = assay: Competitive binding assay: binding of biotinylated hGal-1 to microplate-adsorbed asialofetuin (ASF); details: Activities on hGal-1; mean values of several measurements
In short: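 Compounds diluted in DMSO competed with biotinylated hGal-3 or hGal-1 (300-1000 ng/mL) for binding to plate-adsorbed asialofetuin for 3 h at 4° C. Bound galectin was detected with streptavidin-peroxidase (80 ng/mL, 1 h, 4° C) and ABTS substrate; IC50 reported as mean of several measurements.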

Chain of human Gal-1 (hGal-1) (P09382 2-135 limits assumed): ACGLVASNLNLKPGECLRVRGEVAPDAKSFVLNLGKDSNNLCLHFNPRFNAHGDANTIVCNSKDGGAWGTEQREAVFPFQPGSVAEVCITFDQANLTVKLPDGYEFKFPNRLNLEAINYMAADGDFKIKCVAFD
Chain of human Gal-3 (hGal-3) (P17931 whole entry): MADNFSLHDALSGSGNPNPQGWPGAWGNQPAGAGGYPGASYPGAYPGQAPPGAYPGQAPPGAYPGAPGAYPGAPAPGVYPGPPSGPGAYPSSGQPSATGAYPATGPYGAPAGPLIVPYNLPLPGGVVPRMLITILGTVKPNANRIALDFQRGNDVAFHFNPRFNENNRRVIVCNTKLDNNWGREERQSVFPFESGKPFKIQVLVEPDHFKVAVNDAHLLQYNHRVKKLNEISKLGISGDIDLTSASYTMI

Compound: CCOC(=O)N1CCC(c2cc(C[C@H]3O[C@H](CO)[C@H](O)[C@H](n4cc(-c5cc(F)c(C)c(F)c5)nn4)[C@H]3OC)no2)CC1 [Ex 1.202]
IC50 (human Gal-3 (hGal-3)): 0.033 µM
IC50 (human Gal-1 (hGal-1)): 3.95 µM

Compound: CO[C@@H]1[C@@H](n2cc(-c3cc(F)c(F)c(F)c3)nn2)[C@@H](O)[C@@H](CO)O[C@@H]1Cc1cc(C2(O)CCCC2)on1 [Ex 1.72]
IC50 (human Gal-3 (hGal-3)): 0.36 µM
IC50 (human Gal-1 (hGal-1)): 5.11 µM

Compound: CCOC(=O)N1CCC(c2cc(C[C@H]3O[C@H](CO)[C@H](O)[C@H](n4cc(-c5ccc(F)c(F)c5F)nn4)[C@H]3OC)no2)CC1 [Ex 1.150]
IC50 (human Gal-3 (hGal-3)): 0.023 µM
IC50 (human Gal-1 (hGal-1)): 0.14 µM

Compound: CO[C@@H]1[C@@H](n2cc(-c3cc(F)c(F)c(F)c3)nn2)[C@@H](O)[C@@H](CO)O[C@@H]1Cc1cc(C2(OC)CCCCC2)no1 [Ex 1.210]
IC50 (human Gal-3 (hGal-3)): 0.29 µM
IC50 (human Gal-1 (hGal-1)): 2.73 µM

Compound: CO[C@@H]1[C@@H](n2cc(-c3cc(F)cc(Cl)c3)nn2)[C@@H](O)[C@@H](CO)O[C@@H]1Cc1cc(C2CCN(S(C)(=O)=O)CC2)on1 [Ex 1.160]
IC50 (human Gal-3 (hGal-3)): 0.078 µM
IC50 (human Gal-1 (hGal-1)): 0.73 µM

Compound: CO[C@@H]1[C@@H](n2cc(-c3cc(F)c(F)c(F)c3)nn2)[C@@H](O)[C@@H](CO)O[C@@H]1Cc1cc(C2CCC2)on1 [Ex 1.74]
IC50 (human Gal-3 (hGal-3)): 0.18 µM
IC50 (human Gal-1 (hGal-1)): 3.16 µM

Compound: CO[C@@H]1[C@@H](n2cc(-c3ccc(Cl)c(F)c3)nn2)[C@@H](O)[C@@H](CO)O[C@@H]1Cc1cc(C2CCCCC2)on1 [Ex 1.174]
IC50 (human Gal-3 (hGal-3)): 0.9 µM
IC50 (human Gal-1 (hGal-1)): 18.8 µM

Compound: CO[C@@H]1[C@@H](n2cc(-c3cc(F)c(C)c(F)c3)nn2)[C@@H](O)[C@@H](CO)O[C@@H]1CC1CC(C2CCN(C(=O)OC(C)(C)C)CC2)=NO1 (stereo partly shown) [Ex 1.135]
IC50 (human Gal-3 (hGal-3)): 0.1 µM
IC50 (human Gal-1 (hGal-1)): 9 µM

Compound: CO[C@@H]1[C@@H](n2cc(-c3cc(F)c(F)c(F)c3)nn2)[C@@H](O)[C@@H](CO)O[C@@H]1CC1CC(c2ccc3[nH]c(=O)oc3c2)=NO1 (stereo partly shown) [Ex 1.20]
IC50 (human Gal-3 (hGal-3)): 0.24 µM
IC50 (human Gal-1 (hGal-1)): 4.27 µM

Compound: OC[C@H]1O[C@H](Cc2cc(C3CCN(c4ncco4)CC3)on2)[C@H](O)[C@@H](n2cc(-c3cc(F)c(F)c(F)c3)nn2)[C@H]1O [Ex 1.85]
IC50 (human Gal-3 (hGal-3)): 0.047 µM
IC50 (human Gal-1 (hGal-1)): 1.14 µM

Compound: CO[C@@H]1[C@@H](n2cc(-c3ccc(Cl)c(F)c3F)nn2)[C@@H](O)[C@@H](CO)O[C@@H]1Cc1cc(C(C)(C)CO)no1 [Ex 1.261]
IC50 (human Gal-3 (hGal-3)): 0.042 µM
IC50 (human Gal-1 (hGal-1)): 1.05 µM

Compound: CO[C@@H]1[C@@H](n2cc(-c3ccc(Cl)c(F)c3)nn2)[C@@H](O)[C@@H](CO)O[C@@H]1Cc1cc(C(C)(C)C)on1 [Ex 1.192]
IC50 (human Gal-3 (hGal-3)): 0.2 µM
IC50 (human Gal-1 (hGal-1)): 1.88 µM

Compound: CO[C@@H]1[C@@H](n2cc(-c3cc(F)c(F)c(F)c3)nn2)[C@@H](O)[C@@H](CO)O[C@@H]1Cc1cc(C2(C)COC2)no1 [Ex 1.211]
IC50 (human Gal-3 (hGal-3)): 0.094 µM
IC50 (human Gal-1 (hGal-1)): 0.45 µM

Compound: Cc1ccc(-c2cn([C@H]3[C@@H](O)[C@@H](CO)O[C@H](Cc4cc(C5(C)COC5)no4)[C@@H]3O)nn2)c(F)c1F [Ex 1.335]
IC50 (human Gal-3 (hGal-3)): 0.026 µM
IC50 (human Gal-1 (hGal-1)): 3.78 µM

Compound: CC(C)(C)OC(=O)N1CCC(C2CC(C[C@H]3O[C@H](CO)[C@H](O)[C@H](n4cc(-c5cc(F)c(F)c(F)c5)nn4)[C@H]3O)=NO2)CC1 (stereo partly shown) [Ex 1.41]
IC50 (human Gal-3 (hGal-3)): 0.45 µM
IC50 (human Gal-1 (hGal-1)): 6.29 µM

The next lines start with the values.

IC50 (human Gal-3 (hGal-3)): 0.013 µM
IC50 (human Gal-1 (hGal-1)): 0.12 µM
Compound: CO[C@@H]1[C@@H](n2cc(-c3cc(F)c(F)c(F)c3)nn2)[C@@H](O)[C@@H](CO)O[C@@H]1Cc1cn(C2CCS(=O)(=NCc3ccccc3)CC2)nn1 (stereo partly drawn) [Example 4.28, 1-(benzylimino)-4-(4-(((2R,3R,4S,5R,6R)-5-hydroxy-6-(hydroxymethyl)-3-methoxy-4-(4-(3,4,5-trifluorophenyl)-1H-1,2,3-triazol-1-yl)tetrahydro-2H-pyran-2-yl)methyl)-1H-1,2,3-triazol-1-yl)hexahydro-1l6-thiopyran 1-oxide]

IC50 (human Gal-3 (hGal-3)): 0.072 µM
IC50 (human Gal-1 (hGal-1)): 1.12 µM
Compound: CO[C@@H]1[C@@H](n2cc(-c3cc(F)c(F)c(F)c3)nn2)[C@@H](O)[C@@H](CO)O[C@@H]1C[C@@H]1CC(C2CCN(S(=O)(=O)C(C)C)CC2)=NO1 [Example 3.61, (2R,3R,4S,5R,6R)-2-(hydroxymethyl)-6-(((S)-3-(1-(isopropylsulfonyl)piperidin-4-yl)-4,5-dihydroisoxazol-5-yl)methyl)-5-methoxy-4-(4-(3,4,5-trifluorophenyl)-1H-1,2,3-triazol-1-yl)tetrahydro-2H-pyran-3-ol]

IC50 (human Gal-3 (hGal-3)): 0.065 µM
IC50 (human Gal-1 (hGal-1)): 1.08 µM
Compound: CO[C@@H]1[C@@H](n2cc(-c3cc(F)c(F)c(F)c3)nn2)[C@@H](O)[C@@H](CO)O[C@@H]1Cc1cc(C2CCN(C(=O)C(C)C)CC2)on1 [Example 3.33, 1-(4-(3-(((2R,3R,4S,5R,6R)-5-hydroxy-6-(hydroxymethyl)-3-methoxy-4-(4-(3,4,5-trifluorophenyl)-1H-1,2,3-triazol-1-yl)tetrahydro-2H-pyran-2-yl)methyl)isoxazol-5-yl)piperidin-1-yl)-2-methylpropan-1-one]

IC50 (human Gal-3 (hGal-3)): 0.3 µM
IC50 (human Gal-1 (hGal-1)): 1.29 µM
Compound: CCO[C@@H]1[C@@H](n2cc(-c3cc(F)c(F)c(F)c3)nn2)[C@@H](O)[C@@H](CO)O[C@@H]1CC1CC(C2CCN(C(=O)OC(C)(C)C)CC2)=NO1 (mixture of isomers) [Example 2.31, tert-butyl 4-((RS)-5-(((2R,3R,4S,5R,6R)-3-ethoxy-5-hydroxy-6-(hydroxymethyl)-4-(4-(3,4,5-trifluorophenyl)-1H-1,2,3-triazol-1-yl)tetrahydro-2H-pyran-2-yl)methyl)-4,5-dihydroisoxazol-3-yl)piperidine-1-carboxylate]

IC50 (human Gal-3 (hGal-3)): 0.069 µM
IC50 (human Gal-1 (hGal-1)): 0.56 µM
Compound: CO[C@@H]1[C@@H](n2cc(-c3cc(F)c(F)c(F)c3)nn2)[C@@H](O)[C@@H](CO)O[C@@H]1Cc1cc(C2CCN(S(=O)(=O)N3CCCCC3)CC2)on1 [Example 3.63, (2R,3R,4S,5R,6R)-2-(hydroxymethyl)-5-methoxy-6-((5-(1-(piperidin-1-ylsulfonyl)piperidin-4-yl)isoxazol-3-yl)methyl)-4-(4-(3,4,5-trifluorophenyl)-1H-1,2,3-triazol-1-yl)tetrahydro-2H-pyran-3-ol]

IC50 (human Gal-3 (hGal-3)): 0.096 µM
IC50 (human Gal-1 (hGal-1)): 0.27 µM
Compound: CO[C@@H]1[C@@H](n2cc(-c3cc(F)c(F)c(F)c3)nn2)[C@@H](O)[C@@H](CO)O[C@@H]1C[C@H]1CN(C2CCN(C(C)=O)CC2)C(=O)O1 [Example 5.06, (S)-3-(1-acetylpiperidin-4-yl)-5-(((2R,3R,4S,5R,6R)-5-hydroxy-6-(hydroxymethyl)-3-methoxy-4-(4-(3,4,5-trifluorophenyl)-1H-1,2,3-triazol-1-yl)tetrahydro-2H-pyran-2-yl)methyl)oxazolidin-2-one]

IC50 (human Gal-3 (hGal-3)): 0.31 µM
IC50 (human Gal-1 (hGal-1)): 2.74 µM
Compound: CO[C@@H]1[C@@H](n2cc(-c3cc(F)c(F)c(F)c3)nn2)[C@@H](O)[C@@H](CO)O[C@@H]1Cn1cc(C2CCCCC2)nn1 [Example 4.29, (2R,3R,4S,5R,6R)-6-((4-cyclohexyl-1H-1,2,3-triazol-1-yl)methyl)-2-(hydroxymethyl)-5-methoxy-4-(4-(3,4,5-trifluorophenyl)-1H-1,2,3-triazol-1-yl)tetrahydro-2H-pyran-3-ol]

IC50 (human Gal-3 (hGal-3)): 0.071 µM
IC50 (human Gal-1 (hGal-1)): 1.74 µM
Compound: CC(C)(C)c1cc(C[C@H]2O[C@H](CO)[C@H](O)[C@H](n3cc(-c4cc(F)c(F)c(F)c4)nn3)[C@H]2OCC(=O)O)on1 [Example 2.37, 2-(((2R,3R,4S,5R,6R)-2-((3-(tert-butyl)isoxazol-5-yl)methyl)-5-hydroxy-6-(hydroxymethyl)-4-(4-(3,4,5-trifluorophenyl)-1H-1,2,3-triazol-1-yl)tetrahydro-2H-pyran-3-yl)oxy)acetic acid]
